Like-named read-outs stand apart in the source and are kept apart here.
Tested on: Lewis rat with adjuvant (Mycobacterium butyricum) induced arthritis
Type: in vivo
Conditions: distal end of right-and-left thighbone, 21st day after adjuvant, 14th to 20th day
[1] = Example 2, celecoxib 1 mg/kg orally every day and/or Preparation 22 3.5 mg/kg intraperitoneally

Molecule | Bone density (average ± standard deviation) [1] [mg/cm^2] | Bone density (average ± standard deviation) (Example 1, loxoprofen sodium 5 mg/kg orally and/or Preparation 4 0.1 mg/kg intraperitoneally, every day) [mg/cm^2]
Cc1ccc(-c2cc(C(F)(F)F)nn2-c2ccc(S(N)(=O)=O)cc2)cc1 [Celecoxib, celecoxib] | 103.0 ± 1.8 | 
CC(C(=O)O)c1ccc(CC2CCCC2=O)cc1 (stereo not drawn) [Loxoprofen sodium, loxoprofen sodium] |  | 106.5 ± 0.8
Preparation 22: complex of recombinant human OCIF dimer and DS5; DS5 150 mg/ml, OCIF 5 mg/ml, 7° C., pH 10.5, 168 hours (conjugate, UniProt O00300 22-401, looked up, dimer complexed with DS5, complex of recombinant human OCIF dimer and DS5; DS5 150 mg/ml, OCIF 5 mg/ml, 7° C., pH 10.5, 168 hours) Tumor necrosis factor …: ETFPPKYLHYDEETSHQLLCDKCPPGTYLKQHCTAKWKTVCAPCPDHYYTDSWHTSDECLYCSPVCKELQYVKQECNRTHNRVCECKEGRYLEIEFCLKHRSCPPGFGVVQAGTPERNTVCKRCPDGFFSNETSSKAPCRKHTNCSVFGLLLTQKGNATHDNICSGNSESTQKCGIDVTLCEEAFFRFAVPTKFTPNWLSVLVDNLPGTKVNAESVERIKRQHSSQEQTFQLLKLWKHQNKDQDIVKKIIQDIDLCENSVQRHIGHANLTFEQLRSLMESLPGKKVGAEDIEKTIKACKPSDQILKLLSLWRIKNGDQDTLKGLMHALKHSKTYHFPKTVTQSLKKTIRFLHSFTMYKLYQKLFLEMIGNQVQSVKISCL | 104.2 ± 2.1 | 

From patent US20030181418A1, “Pharmaceutical composition” (SANKYO COMPANY, LIMITED, priority 2002, published 2003)
